System: Serotoninödem an der Ratte
Experiment: Antiserotonin effect on serotonin-induced oedema in the rat (set-up according to Winter, Risley and Nuss)
Format: in vivo
Conditions: dose 0,005 mg/kg i. p., mean inhibition versus control group, values statistically significant for A and B; for prozentuale Hemmung nach Serotoningabe (%) nach 30 min: 30 min after serotonin; for prozentuale Hemmung nach Serotoningabe (%) nach 90 min: 90 min after serotonin; for prozentuale Hemmung nach Serotoningabe (%) nach 150 min: 150 min after serotonin; for prozentuale Hemmung nach Serotoningabe (%) nach 210 min: 210 min after serotonin; for prozentuale Hemmung nach Serotoningabe (%) nach 270 min: 270 min after serotonin

| Structure (SMILES) | prozentuale Hemmung nach Serotoningabe (%) nach 30 min [%] | prozentuale Hemmung nach Serotoningabe (%) nach 90 min [%] | prozentuale Hemmung nach Serotoningabe (%) nach 150 min [%] | prozentuale Hemmung nach Serotoningabe (%) nach 210 min [%] | prozentuale Hemmung nach Serotoningabe (%) nach 270 min [%] |
| --- | --- | --- | --- | --- | --- |
| C[C@@H](CO)NC(=O)[C@@H]1C=C2c3cccc4c3c(cn4Cc3cccc(F)c3)C[C@H]2N(C)C1 [Verb. A, 1-(3'-Fluorbenzyl)-ergometrindimaleinat] | 44 | 50 | 36 | 55 | 56 |
| CC[C@@H](CO)NC(=O)[C@@H]1C=C2c3cccc4c3c(cn4C)C[C@H]2N(C)C1 [Methysergid, reference compound] | 68 | 60 | 36 | 34 | 46 |
| C[C@@H](CO)NC(=O)[C@@H]1C=C2c3cccc4c3c(cn4Cc3ccc(Cl)cc3)C[C@H]2N(C)C1 [Verb. B, 1-(4'-Chlorbenzyl)-ergometrindimaleinat] | 44 | 45 | 46 | 61 | 58 |
